The IC50 is the concentration that gives 50% inhibition.

The subject of data set [1] is MCF-7. The experiment in a line: Cytotoxicity assay (MTT), MCF-7. The data set is classed as cell-based, human. The following applies: for IC50: read-out: Cytotoxicity, IC50, MCF-7. How it is done: (§1) MCF-7 (human breast adenocarcinoma, estrogen-positive) and 4T1 (mouse carcinoma), as breast cancer cell lines, and H9C2 (rat cardiomyoblasts), NIH 3T3 (mouse fibroblasts), HEKa (primary human epidermal keratinocytes), MDCK (Madin-Darby Canine Kidney) cells, and A7r5 (rat vascular smooth muscle cells), as normal cell lines, were obtained from the American Type Culture Collection [ATCC] collection for use in the current study. All cell lines were cultured in Dulbecco's modified Eagle's medium (DMEM) containing 10% fetal bovine serum (FBS) and 4 mM L-glutamine at 37 °C and 5% CO2.
(§2) Cell viability was assessed by the addition of 3-(4,5-dimethylthiazol-2-yl)-2,5-diphenyltetrazolinium bromide (MTT). Briefly, cells were seeded (2–6 × 10^4 cells/ml) in 96-well plates and allowed to attach for 24 h. Solutions of test compounds were prepared and serially diluted to obtain the appropriate concentrations. The cells were treated with the test compounds at different concentrations (0.032–100 µM) and incubated for 48 h at 37 °C and 5% CO2. Then, the culture medium was removed, and medium containing 0.2 mg/ml MTT was added. After 3 h (37 °C, 5% CO2), the MTT-containing medium was removed, and 200 μl of dimethyl sulfoxide (DMSO) was immediately added to each sample. The absorbance was assessed at 540 nm using a Tecan multiplate reader Infinite 1000 (Austria). The half-maximal inhibitory concentration (IC50) of each compound was calculated using Graph Pad Prism 3.0.

For data set [2], the system named is MCF-7 cells. Nature of the data set: NAD+/NADH assay kit measurement. The data set is classed as cell-based, human. The following applies: 2 μM, 10 min. How it is done:
The NAD^+/NADH ratio in the MCF-7 cells exposed to the test compounds (2 μM) for 10 min was measured using an NAD^+/NADH assay kit (Abcam, ab65348) according to the manufacturer's instructions.

The test system of data set [3] is 4T1. The experiment in a line: Cytotoxicity assay (MTT), 4T1. Format: cell-based, mouse. The following applies: read-out: Cytotoxicity, IC50, 4T1. The protocol:
as §1, §2

Data set [4] is described as follows: Cytotoxicity assay (MTT), MDCK. Format: cell-based, Canine. The following applies: dog, normal cell line, mean ± S.D., 3 experiments. How it is done:
as §1, §2

A short description of data set [5]: Cytotoxicity assay (MTT), A7r5. Format: cell-based, rat. The following applies: rat, normal cell line, mean ± S.D., 3 experiments. How it is done:
as §1, §2

Data set [6] can be described thus: Cytotoxicity assay (MTT), HEKa. Format: cell-based, human. The following applies: human, normal cell line, mean ± S.D., 3 experiments. The protocol: as §1, §2
The nature of data set [7]: Cytotoxicity assay (MTT), H9C2. Format: cell-based, rat. The following applies: rat, normal cell line, MTT, 48 h, mean ± S.D., 3 experiments. The protocol: as §1, §2
For data set [8], the system named is MCF-7 cells. The experiment in a line: Fluorometric measurement of NMN level. Format: cell-based, human. The following applies: 2 μM, 10 min, vs control. The protocol: For fluorometric measurements of NMN, a previously described method was used, with minor modifications. […] The cells were washed with PBS and then lysed by adding 200 μl of 1 M HClO4 to each well and incubating at 4 °C for 20 min. The cells were harvested by scraping and transferred to a tube. The extracts were neutralized with 100 μl of 2 M KOH for 5 min at room temperature and 50 μl of 0.1 M bicine (pH 7.4) was added. The samples were centrifuged at 14 000 × g for 10 min at 4 °C, and the supernatant was collected for further analysis. The protein concentration in each sample was determined using a Bio-Rad protein assay kit. […] The reaction was incubated for 2 min at 4 °C, after which 45 μl of 88% formic acid was added, and the samples were incubated for another 10 min at 37 °C on a shaker. The fluorescence was measured using a Tecan multiplate reader Infinite 1000 (Austria) with excitation at 382 nm and emission at […].

Data set [9] relates to permeabilized 4T1 cells. The experiment in a line: High-resolution fluorespirometry (respiration and H2O2 flux). The data set is classed as cell-based, mouse. The following applies: 1 µM, pyruvate-dependent OXPHOS state. The protocol:
High-resolution fluorespirometry was performed using an Oxygraph-2 k system (OROBOROS INSTRUMENTS, Austria). All experiments were performed at 37 °C in MiR05 medium (110 mM sucrose, 60 mM K-lactobionate, 0.5 mM EGTA, 3 mM MgCl2, 20 mM taurine, 10 mM KH2PO4, 20 mM HEPES, pH 7.1 at 30 °C, and 0.1% BSA essentially fatty acid free). The medium was reoxygenated when the oxygen concentration dropped to 80 µM. H2O2 flux was simultaneously measured with respirometry in the O2k-Fluorometer using the H2O2-sensitive probe Ampliflu Red (AmR) as described. The H2O2/O flux ratio [%] was calculated as the H2O2 flux/(0.5 O2 flux).
In permeabilized 4T1 cells, pyruvate + malate (5 and 2 mM) or glutamate + malate (10 and 2 mM) were used to determine complex I (CI)-linked LEAK (L) respiration. ADP was added to a concentration of 5 mM to determine the oxidative phosphorylation-dependent respiration (OXPHOS state). Succinate (10 mM, complex II (CII) substrate) was then added to reconstitute convergent CI&II-linked respiration. Rotenone (0.5 µM, an inhibitor of complex I) and antimycin A (2.5 µM, an inhibitor of complex III) were added to determine the CII-linked OXPHOS capacity and residual oxygen consumption (ROX), respectively. Compound 6 was added to permeabilized cells after the addition of the respective substrates in the OXPHOS state (titration experiment) or in the LEAK state. In addition, compounds 3, 6 and 7 were tested at 1 µM in the OXPHOS coupling protocol in the LEAK state. The OXPHOS coupling efficiency was calculated as: 1-Resp.rateLEAKstate/Resp.rateOXPHOSstate
The substrate-dependent flux control factor was calculated as: 1-Resp.ratebeforeadditionofrespectivesubstrate/Resp.rateafteradditionofrespectivesubstrate

A short description of data set [10]: Cytotoxicity assay (MTT), 3T3. Format: cell-based, mouse. The following applies: mouse, normal cell line, mean ± S.D., 3 experiments. The protocol:
as §1, §2

The test system of data set [11] is MDCK. The experiment in a line: Cytotoxicity assay (MTT), MDCK. Format: cell-based, Canine. The following applies: normal cell line, 48 h, mean ± S.D., 3 experiments. The protocol:
as §1, §2

The subject of data set [12] is A7r5. The experiment in a line: Cytotoxicity assay (MTT), A7r5. Format: cell-based, rat. The following applies: normal cell line, 48 h, mean ± S.D., 3 experiments. The protocol: as §1, §2
For data set [13], the system named is HEKa. The experiment in a line: Cytotoxicity assay (MTT), HEKa. The following applies: normal cell line, 48 h, mean ± S.D., 3 experiments. Format: cell-based, human. The protocol:
as §1, §2

Data set [14] deals with H9C2. The experiment in a line: Cytotoxicity assay (MTT), H9C2. The data set is classed as cell-based, rat. The following applies: for IC50: normal cell line, MTT, 48 h, mean ± S.D., 3 experiments. How it is done: as §1, §2
For data set [15], the system named is NIH 3T3. The experiment in a line: Cytotoxicity assay (MTT), 3T3. Format: cell-based, mouse. The following applies: normal cell line, 48 h, mean ± S.D., 3 experiments. The protocol: as §1, §2
[16] abbreviates: Homo sapiens, MCF7, breast cancer cell line, MTT, 48 h, mean ± S.D., 3 experiments.
The mark [17] stands for this setting: Mus musculus, 4T1, breast cancer cell line, MTT, 48 h, mean ± S.D., 3 experiments.
Setting [18] is: A7r5 cells (vascular smooth muscle cells).
The mark [19] stands for this setting: HEKa cells (primary epidermal keratinocytes).
[20] abbreviates: breast cancer cell line, MTT, 48 h, mean ± S.D., 3 experiments.

Where two headings read alike, the source gives them in different places.

Regarding `Cn1cc[n+]2[se]c(C3(O)CCCCC3)c(Br)c12` [Compound 7, 3-bromo-N-methyl-2-(1-hydroxycyclohexyl)[1,2]selenazolo[2,3-b]imidazolium bromide], the IC50 in [1] (Homo sapiens, MCF7, 48 h) was 1480 ± 20 nM; in data set [3] (Mus musculus, 4T1, 48 h), 940 ± 60 nM. Besides, in data set [2], the “NAD+/NADH ratio higher than in untreated cells” value was determined as 1.65 times. For the same compound, the “decrease in NAD+ level” value in data set [2] (vs control) was “without affecting”. Further, in [2] (vs control), the “decrease in NADH level” value is reported as “induced a decrease”. Also, the half-inhibitory concentration (IC50) at 48 h in data set [4] came out at 4280 ± 340 nM; in data set [5], 1660 ± 250 nM; in [6], 2190 ± 90 nM; in [7] it was 670 ± 20 nM; in data set [10] it was 2200 ± 300 nM. Moreover, the “decrease in NMN levels” value in data set [8] is “not”. The “increase in H2O2/O ratio” value in data set [9] was “immediate significant increases”. Also, the “increase in H2O2 production” value in [9] is given as “immediate significant increases”.

For the compound `OC1(c2[se][n+]3ccccc3c2Br)CCCCCC1.[Br-]` [Compound 5, 3-Bromo-2-(1-hydroxycycloheptyl)-[1,2]selenazolo[2,3-a]pyridinium bromide], the IC50 turned out to be 290 ± 10 nM in data set [1] (setting [16]) and 410 ± 50 nM in data set [3] (setting [17]). For the same compound, the “increase of cytotoxicity against MCF-7 cells” value in data set [1] (cycloheptyl (5) versus cyclohexyl (4)) is “approximately 3 times”. Besides, the IC50 at 48 h in data set [4] (MDCK cells) came out at 1510 ± 370 nM; in data set [5] (setting [18]) it was 1920 ± 440 nM; in data set [6] (setting [19]) it was 2010 ± 80 nM; in [7] (H9C2 cells (cardiomyoblasts)), 9300 ± 200 nM; in [10] (NIH 3T3 cells (fibroblasts)), 980 ± 30 nM.

Regarding `O=[Se](O)O` [Na2SeO3, Sodium selenite, reference compound], the concentration for half-maximal inhibition (IC50) in data set [1] (setting [20]) came to 17100 ± 2400 nM; in [3] (setting [20]), 4900 ± 600 nM; in data set [11], 6300 ± 400 nM; in [12], 39400 ± 8200 nM; in [13], 13300 ± 1100 nM; in [14], 1500 ± 300 nM. Further, in [15], the IC50 turned out to be 22300 ± 3600 nM.

As for `OC(c1ccccc1)(c1ccccc1)c1[se][n+]2ccccc2c1Br` [Compound 2, 3-bromo-2-(hydroxydiphenylmethyl)-[1,2]selenazolo[2,3-a]pyridin-8-ium], the IC50 in [1] (setting [16]) came to 390 ± 30 nM; in data set [3] (setting [17]), 1100 ± 80 nM. Moreover, the IC50 at 48 h is 6270 ± 290 nM in data set [4] (MDCK cells); 1870 ± 260 nM in [5] (setting [18]); 2780 ± 80 nM in [6] (setting [19]); 4200 ± 300 nM in data set [7] (H9C2 cells (cardiomyoblasts)); 1600 ± 300 nM in data set [10] (NIH 3T3 cells (fibroblasts)).

Turning to “3-bromo-2-(2-hydroxy-2-methylethyl)-[1,2]selenazolo[2,3-a]pyridinium chloride [Compound 1]”, the IC50 in data set [1] (setting [20]) was found to be 3100 ± 30 nM; in data set [3] (setting [20]), 300 ± 30 nM; in data set [11] it was 3260 ± 400 nM; in data set [12], 2890 ± 420 nM; in [13] it was 2310 ± 20 nM; in data set [14] it was 1800 ± 100 nM. The 50% inhibitory concentration (IC50) in data set [15] turned out to be 130 ± 20 nM.

As to `Cc1cc[n+]2[se]c(C3(O)CCCCC3)c(Br)c2c1` [Compound 4, 3-bromo-2-(1-hydroxycyclohexyl)-5-methyl-[1,2]selenazolo[2,3-a]pyridin-8-ium], the IC50 in data set [1] (setting [16]) amounted to 1480 ± 40 nM; in [3] (setting [17]), 450 ± 20 nM. Also, the IC50 at 48 h in data set [4] (MDCK cells) was 2540 ± 570 nM; in [5] (setting [18]), 1930 ± 160 nM; in data set [6] (setting [19]), 2050 ± 50 nM; in [7] (H9C2 cells (cardiomyoblasts)), 2900 ± 100 nM; in data set [10] (NIH 3T3 cells (fibroblasts)), 790 ± 20 nM.

Turning to `COc1cccc2c1C(=O)c1c(O)c3c(c(O)c1C2=O)C[C@@](O)(C(=O)CO)C[C@@H]3O[C@H]1C[C@H](N)[C@H](O)[C@H](C)O1` [Doxorubicin, reference compound], the IC50 in data set [1] (setting [16]) came out at 1000 ± 300 nM; in data set [3] (setting [17]) it was 160 ± 60 nM. Moreover, the IC50 at 48 h in data set [4] (MDCK cells) came out at 57000 ± 6100 nM; in [5] (setting [18]) it was 1820 ± 350 nM; in data set [7] (H9C2 cells (cardiomyoblasts)), 11000 ± 1000 nM; in [10] (NIH 3T3 cells (fibroblasts)), 750 ± 90 nM. Further, the “IC50 values in tumor cells versus cardiomyocytes, fold lower” value in data set [14] (tumor cells versus cardiomyocytes) is 10–100 fold.
